Test results published in US9593305B2, “Differentiation of pluripotent stem cells” (Janssen Biotech, Inc., priority 2008, dated 2017).

Test system: H1 human embryonic stem cells
Test: Screen of CDK, GSK3 and TRK inhibitors with or without GDF-8, SOX17 and cell number (Example 20, Table 17)
Assay type: cell-based
Conditions: for Cell Number, Average Total Cell Number / Sox17 Expression, Average Total Intensity / Cell Number, % of positive control / Sox17 Expression, % of positive control: Plate 1; for Cell Number, % of positive control / Sox17 Expression, % of positive control: positive control = Activin A/Wnt3a
Procedure: Briefly, clusters of H1 human embryonic stem cells were grown on reduced growth factor Matrigel™ (Invitrogen; Cat #356231) coated tissue culture plastic. Cells were passaged using collagenase (Invitrogen; Cat #17104-019) treatment and gentle scraping, washed to remove residual enzyme, and plated with even dispersal at a ratio of 1:1 (surface area) on reduced growth factor […]™ (BD Biosciences; Cat #356231)-coated 96-well black plates (Packard ViewPlates; PerkinElmer; Cat #6005182) using volumes of 100 μl/well. Cells were allowed to attach and then recover log phase growth over a 1 to 3 day time period, feeding daily with MEF conditioned medium supplemented with 8 ng/ml bFGF (R&D Systems; Cat #233-FB). Plates were maintained at 37° C., 5% CO2 in a humidified box throughout the duration of assay.
Screening was conducted using the compounds described in Table 16. […] Compounds were made available as 5 mM stocks in 96-well plate format, solubilized in 100% DMSO (Sigma; Cat #D2650) and stored at −80° C. The library compounds were further diluted to an intermediate concentration of 0.2 mM in 50 mM HEPES (Invitrogen; Cat #15630-080), 20% DMSO and stored at 4° C. Test conditions were performed in triplicate, feeding on alternating days over a four-day assay period. Assay was initiated by aspirating culture medium from each well followed by three washes in PBS (Invitrogen; Cat #14190) to remove residual growth factors. On the first day of assay, test volumes of 200 μl per well were added to each well using DMEM:F12 base medium (Invitrogen; Cat #11330-032) supplemented with 0.5% FCS (HyClone; Cat #SH30070.03) and 100 ng/ml GDF-8 (R&D Systems, Cat #788-G8) plus 2.5 μM compound. A parallel set of test samples were treated in an identical manner but omitting GDF-8 from the medium. On the third day of assay, test volumes of 100 μper well were added to each well using DMEM:F12 base medium supplemented with 2% FCS plus 100 ng/ml GDF-8 (R&D Systems, Cat #788-G8). […] Positive control samples contained the same base medium supplemented with FCS and 100 ng/ml recombinant human activin A (PeproTech; Cat #120-14) throughout the four day assay along with Wnt3a (20 ng/ml) addition on days 1 and 2. Negative control samples contained DMEM:F12 base medium supplemented with FCS.
At the conclusion of four-days of culture, assay plates were washed twice with PBS (Invitrogen; Cat #14190), fixed with 4% paraformaldehyde (Alexis Biochemical; Cat #ALX-350-011) at room temperature for 20 minutes, then washed three times with PBS and permeabilized with 0.5% Triton X-100 (Sigma; Cat #T8760-2) for 20 minutes at room temperature. Cells were washed again three times with PBS and blocked with 4% chicken serum (Invitrogen; Cat #16110082) in PBS for 30 minutes at room temperature. Primary antibody (goat anti-human SOX17; R&D Systems; Cat #AF1924) was diluted 1:100 in 4% chicken serum and added to each well for one hour at room temperature. Alexa Fluor 488 conjugated secondary antibody (chicken anti-goat IgG; Molecular Probes; Cat #AZ1467) was diluted 1:200 in PBS and added to each sample well after washing three times with PBS. To counterstain nuclei, 4 μg/ml Hoechst 33342 (Invitrogen; Cat #H3570) was added for ten minutes at room temperature. Plates were washed once with PBS and left in 100 μl/well PBS for imaging.
Imaging was performed using an IN Cell Analyzer 1000 (GE Healthcare) utilizing the 51008bs dichroic for cells stained with Hoechst 33342 and Alexa Fluor 488. Exposure times were optimized from positive control wells and from untreated negative control wells stained with secondary antibody alone. Images from 15 fields per well were acquired to compensate for any cell loss during the bioassay and subsequent staining procedures. Measurements for total cell number and total SOX17 intensity were obtained from each well using IN Cell Developer Toolbox 1.7 (GE Healthcare) software. […]

[1] = compound in combination with GDF8
[2] = growth factor treatment alone, no compound

Compound | SOX17 expression in the presence of GDF-8 (2.5 μM compound with 100 ng/ml GDF-8, four days) | Cell Number, Average Total Cell Number [1] | Sox17 Expression, Average Total Intensity [1] | Cell Number, % of positive control [1] | Sox17 Expression, % of positive control [1] | Cell Number, Average Total Cell Number [2] | Sox17 Expression, Average Total Intensity [2] | Cell Number, % of positive control [2] | Sox17 Expression, % of positive control [2]
O=C1CCN2CCN(CC2)Cc2cc(Cl)cc(c2)Nc2ncnc(n2)-c2cncc(c2)CCCN1 [Compound 34, 5-Chloro-1,8,10,12,16,22,26,32-octaazapentacyclo[24.2.2.1˜3.7˜0.1˜9,13˜0.1˜14.18˜]tritriaconta-3(33), 4,6,9(32), 10,12,14(31), 15,17-nonaen-23-one] | induced significant SOX17 expression | 13926 | 2.6E+08 | 96.2 % of positive control | 111.8 % of positive control |  |  |  | 
GDF-8: growth factor GDF-8, also known as myostatin, member of the TGF-β family |  |  |  |  |  | 2856 | 2.2E+07 | 19.7 % of positive control | 9.4 % of positive control
